Source: ChEMBL document CHEMBL4184140, “Expanding the tetrahydroquinoline pharmacophore” (Bioorg Med Chem Lett, 2017)
Activity calls are given as the source filed them. The rule behind the calls is not given here.

What follows are compounds tested on Mycobacterium tuberculosis variant bovis (assay: Antitubercular activity against Mycobacterium bovis).
Format: functional, organism-based

| Compound | Activity |
| --- | --- |
| C=CCO[C@@H]1[C@@H]2c3ccccc3N(C(C)=O)[C@H](c3ccccc3)[C@@H]2C[C@H]1N=[N+]=[N-] | inactive |
| Brc1cccc([C@H]2Nc3ccccc3[C@H]3C=CC[C@H]32)c1 | inactive |
| CC(=O)N1c2ccccc2[C@H]2[C@@H](O)[C@H](N=[N+]=[N-])C[C@H]2[C@H]1c1ccc(Cl)cc1 | inactive |
| Brc1ccc2c(c1)[C@H]1C=CC[C@H]1[C@@H](c1ccccc1)N2 | inactive |
| O[C@@H]1[C@@H]2c3ccccc3N[C@H](c3ccccc3)[C@@H]2C[C@@H]1O | inactive |
| CC(=O)N1c2cc([N+](=O)[O-])ccc2[C@H]2[C@@H](O)[C@H](N=[N+]=[N-])C[C@H]2[C@H]1c1ccccc1 | inactive |
| COC(=O)C[C@@H]1[C@H](C(=O)OC)c2ccccc2N(C(C)=O)[C@@H]1c1ccccc1 | inactive |
| C=CCO[C@@H]1[C@@H]2c3ccccc3N(C(C)=O)[C@H](c3ccc(Cl)cc3)[C@@H]2C[C@H]1N=[N+]=[N-] | inactive |
| CC(=O)N1c2ccccc2[C@@H]2[C@@H](C[C@@H]3O[C@H]23)[C@H]1c1ccccc1 | inactive |
| O=[N+]([O-])c1ccc2c(c1)N[C@H](c1ccccc1)[C@@H]1CC=C[C@H]21 | inactive |
| Fc1ccc2c(c1)N[C@H](c1ccccc1)[C@@H]1CC=C[C@H]21 | inactive |
| CC(=O)N1c2ccccc2[C@H]2[C@@H](O)[C@@H](O)C[C@H]2[C@H]1c1ccccc1 | inactive |
| Cc1ccccc1[C@H]1Nc2ccccc2[C@H]2[C@@H](O)[C@@H](O)C[C@H]21 | inactive |
| C=CCO[C@@H]1[C@@H]2c3ccccc3N(C(C)=O)[C@H](c3cccc(Br)c3)[C@@H]2C[C@H]1N=[N+]=[N-] | inactive |
| CC(=O)N1c2ccccc2[C@H]2C=CC[C@H]2[C@H]1c1ccc(Cl)cc1 | inactive |
| O[C@@H]1[C@@H]2c3ccccc3N[C@H](c3cccc(Br)c3)[C@@H]2C[C@@H]1O | inactive |
| Clc1ccc([C@H]2Nc3ccccc3[C@H]3C=CC[C@H]32)cc1 | inactive |

| Compound | Activity |
| --- | --- |
| C1=C[C@@H]2c3ccccc3N[C@H](c3ccccc3)[C@@H]2C1 | inactive |
| O[C@@H]1[C@@H]2c3cc(Br)ccc3N[C@H](c3ccccc3)[C@@H]2C[C@@H]1O | inactive |
| CC(=O)N1c2ccccc2[C@H]2C=CC[C@H]2[C@H]1c1cccc(Br)c1 | inactive |
| CC(=O)N1c2ccccc2[C@@H]2[C@@H](C[C@@H]3O[C@H]23)[C@H]1c1cccc(Br)c1 | inactive |
| O=[N+]([O-])c1ccc2c(c1)N[C@H](c1ccccc1)[C@@H]1C[C@H](O)[C@H](O)[C@H]21 | inactive |
| Cc1ccccc1[C@H]1Nc2ccccc2[C@H]2C=CC[C@H]21 | inactive |
| CC(=O)N1c2ccccc2[C@H]2C=CC[C@H]2[C@H]1c1ccccc1 | inactive |
| O[C@@H]1[C@@H]2c3ccccc3N[C@H](c3ccc(Cl)cc3)[C@@H]2C[C@@H]1O | inactive |
| C=CCO[C@H]1C(n2cc(-c3ccccc3)nn2)C[C@@H]2[C@H]1c1ccccc1N(C(C)=O)[C@@H]2c1ccccc1 (single isomer, unassigned) | inactive |
| CC(=O)N1c2ccccc2[C@H]2[C@@H](O)[C@H](N=[N+]=[N-])C[C@H]2[C@H]1c1cccc(Br)c1 | inactive |
| CC(=O)N1c2ccccc2[C@H]2C=CC[C@H]2[C@H]1c1ccccc1C | inactive |
| CC(=O)N1c2ccccc2[C@@H]2[C@@H](C[C@@H]3O[C@H]23)[C@H]1c1ccc(Cl)cc1 | inactive |
| CC(=O)N1c2cc([N+](=O)[O-])ccc2[C@@H]2[C@@H](C[C@@H]3O[C@H]23)[C@H]1c1ccccc1 | inactive |
| O[C@@H]1[C@@H]2c3ccc(F)cc3N[C@H](c3ccccc3)[C@@H]2C[C@@H]1O | inactive |
| CC(=O)N1c2ccccc2[C@H]2[C@@H](O)[C@H](N=[N+]=[N-])C[C@H]2[C@H]1c1ccccc1 | inactive |
| CC(=O)N1c2ccc(Br)cc2[C@H]2C=CC[C@H]2[C@H]1c1ccccc1 | inactive |
| CC(=O)N1c2cc([N+](=O)[O-])ccc2[C@H]2C=CC[C@H]2[C@H]1c1ccccc1 | inactive |
